According to article PMC7154662, “Structural Insight into IAPP‐Derived Amyloid Inhibitors and Their Mechanism of Action” (Angewandte Chemie (International Ed. in English), 2020):
“Also recorded” adds a separate entry of the source.

Key:
[1] = system: Aβ; details: cited from earlier work
From the text: (§1) Single‐site binding events are the classical paradigm for a drug–enzyme complex. Because of the low affinity and the lack of deep binding pockets, this class of inhibitors is not very effective for amyloids (Figure 7, top). Nevertheless, it has been shown that multi‐ligand interactions of tramisprosate with monomeric Aβ42 can prevent amyloid oligo ...

[2] = Saturation transfer difference (STD) NMR; type: physicochemical; details: R3-GI 1.25 mM, control peptide 60 μM, 10 mM sodium phosphate buffer, pH 7.4 (1% v/v HFIP, 10% v/v D2O)
[3] = system: Aβ42; details: multi-ligand interactions with monomeric Aβ42; cited from earlier work
From the text: as §1

[4] = system: Aβ40; experiment: Solubility of 15N-labeled Aβ40 in presence of ISM (NMR titration); type: binding; details: for Aβ40 signal at tenfold excess of ISM, in words: molar ratio Aβ/ISM 1:10; for Effect on Aβ40 solubility upon titration, in words: titration with / incubation of monomeric Aβ40
Protocol: (§2) Figure 5 ISM–substrate interactions. A) ^15N‐filtered 1D‐^1H spectra of a 20 μM sample of ^15N‐labeled Aβ40 in the absence (black) and presence of the ISM inhibitor K3‐L3‐K3‐GI (top), and the non‐inhibitor G3‐GI (bottom). […] At this molar excess, the intensities of Aβ40 are reduced only to ca. 28 % when G3‐GI is titrated to Aβ40. […] At a molar ratio of 1:10 for Aβ/inhibitor, the spectrum is dominated by the resonances of the inhibitor. […] B) 2D ^1H‐^15N HSQCs of Aβ40 incubated with K3‐L3‐K3‐GI (red) at a molar ratio of 1:1. The Aβ40 reference spectrum is represented in black. […] C) Comparison of the DIC and fluorescence microscopy images of R3‐GI/Aβ40, K3‐L3‐K3‐GI/Aβ40, and G3‐GI/Aβ40. […] Scale: 10 μm.

[5] = system: Aβ40/42; details: ref 1b; cited from earlier work
From the text: The design of the ISMs was based on the finding that amyloids are generally composed of a β‐sheet‐turn‐β‐sheet structural motif and that IAPP uses the same two binding regions for both its amyloid self‐ and its cross‐amyloid hetero‐assem ... || Our studies focused on the two ISMs R3‐GI and K3‐L3‐K3‐GI for the following reasons (Figure 1 A and Table S1 in the Supporting Information): 1) R3‐GI was used in solution‐state NMR studies as the intrinsically low solubility of all ISMs with hydrophobic linkers makes them unsuitable for solution‐state NMR spectroscopy. […] Multivalent interactions between an inhibitor molecule and an amyloid fibril have been exploited by Wall and co‐workers,27 who designed an α‐helical peptide with a lysine basic side chain to interact with negatively charged residues exposed on the surface of amyloid structures. These inhibitors are used as imaging reagents and stabilize a fibrillar fold. In contrast, ISMs prevent amyloid form ...

[6] = Morphology by TEM, DIC and fluorescence microscopy; type: physicochemical; details: DIC experiments; 10 mM sodium phosphate buffer, pH 7.4 (1% v/v HFIP)
Protocol: Figure 1 R3‐GI self‐assembly. […] On the right, the binding curve is shown. The estimated app. […] Data are means (±SEM) from three binding curves. […] Scale bar: 10 μm.
(§3) Peptide synthesis and sample preparation for NMR
(§4) The other peptide samples were
(§5) Sample preparation for DLS, TEM and DIC
(§6) (containing 1% v/v HFIP) without filtration. The Fluor-647-Aβ40 was ordered from AnaSpec, […]
(§7) for 20 min before capturing images. […]
(§8) microscope, as described elsewhere. An oil immersion objective (Apo-TIRF 100x Oil/NA 1.49, Nikon) was used for all measurements.
(§9) Picoquant) was used for excitation. Fluorescence emission was detected using an avalanche […]
(§10) measurements were carried out at 22 °C.
(§11) (measured before the back aperture of the objective). […]
(§12) temperature within 2-5 min following solution preparation. The determined app. Kd is means (±SD) from three binding curves.
Cross-linking studies were performed as previously described. […]
(§13) Effects of peptides on amyloidogenesis of Aβ40 were determined using a previously established ThT binding assay as described. […] ThT binding was determined immediately by measuring fluorescence emission at 486 nm following excitation at 450 nm using a 2030 Multilabel Reader VictorX3 (PerkinElmer Life Sciences). […]
(§14) PA 19440, USA; Formvar/Carbon 300 mesh copper coated). Samples were measured immediately employing an EM 10 CR (Zeiss, Germany). […]

[7] = system: Aβ40; experiment: Co-localization of Fluos-labeled ISMs with Fluor-647-Aβ40 (DIC and fluorescence microscopy); type: binding; details: incubated at room temperature for 20 min
Protocol: as §2, §3, §4, §5
(containing 1% v/v HFIP) without filtration. The Fluor-647-Aβ40 was ordered from AnaSpec,
for 20 min before capturing images.
microscope, as described elsewhere. An oil immersion objective (Apo-TIRF 100x Oil/NA
1.49, Nikon) was used for all measurements.
Picoquant) was used for excitation. Fluorescence emission was detected using an avalanche
as §10
(measured before the back aperture of the objective).

[8] = Solution-state NMR (NOESY, chemical shifts) structural characterization; type: physicochemical
Protocol: as §3, §4, §5, §6, §7, §8, §9, §10, §11
quantify the signal-to-noise ratio. For the R3-GI peptide, the signal to noise ratio of the isolated Thr-CH3 peak amounts to […]. For the reference peptide, the signal to noise of the single Thr-CH3 peak corresponds to 216.82. The ratio of concentrations amounts to a factor of 20.83. Otherwise, 1D-1H spectra were recorded under identical conditions. […]
images in which we determined the partitioning coefficient of the R3-GI solution (Fig. S3). […]
correlation time which in turn would result in higher NOESY cross peak intensities. A) H- H NOESY spectrum recorded for a 500 μM solution of R3-GI, using a salt concentration of 2.5 mM (black) and 50 mM NaCl (red), respectively. […]
recorded for a 500 μM solution of R3-GI, setting the pH to 5.98 (blue), 6.87 (green), 7.06 (red) and 7.23 (black). […]

[9] = system: Aβ40; experiment: TEM of ISM-induced Aβ40 aggregates; type: biochemical; details: equimolar amount of K3-L3-K3-GI
Protocol: Figure 6 Structural characterization of K3‐L3‐K3‐GI‐induced Aβ40 aggregates. A, B) TEM images of Aβ40 in the absence (A) and presence (B) of an equimolar amount of K3‐L3‐K3‐GI. Scale bar: 200 nm. C) 2D ^13C,^15N MAS solid‐state NMR correlation spectra obtained for K3‐L3‐K3‐GI‐induced Aβ40 aggregates (red). To prepare the sample, a 20 μM solution of monomeric Aβ40 was incubated with a 1.23‐fold molar excess of K3‐L3‐K3‐GI. For reference, the correlation spectrum obtained for Aβ40 fibrils is shown in black. To prepare the Aβ40 fibril sample, monomeric Aβ40 was grown using 5 % seeds, following the protocol described by Lopez and co‐workers.17 (D) Cα–Cβ chemical shift differences for K3‐L3‐K3‐GI‐induced Aβ40 aggregates (top). TALOS+^[19]‐predicted secondary structure propensity (bottom). […]
temperature within 2-5 min following solution preparation. The determined app. […]
as §13, §14

[10] = Solubility of ISMs (qualitative); type: physicochemical
[11] = system: Aβ40; experiment: Effects of ISM on Aβ40 amyloid self-assembly (ThT binding assay); type: biochemical; details: Aβ40/ISM 1/1, 50 mM sodium phosphate buffer, pH 7.4, 100 mM NaCl, 1% HFIP, room temperature, 3 assays
Protocol: as §12
Cross-linking studies were performed as previously described. Briefly, R3-GI was dissolved at 500 μM in aqueous 10 mM sodium phosphate buffer, pH 7.4, and incubated for the indicated time points at room temperature, cross-linked with aqueous glutaraldehyde (25%) (Sigma-Aldrich), precipitated with aqueous trichloroacetic acid (TCA) (10%) and pellets were dissolved in NuPAGE sample buffer and subjected to NuPAGE electrophoresis in 4-12% Bis-Tris gels with MES running buffer. Equal amounts of peptide were loaded in all lanes. Coomassie blue staining was performed following standard protocols.
Dynamic light scattering experiments […]
as §13
(A) Amyloid self-assembly of Aβ40 alone and its mixtures (1:1) with K3-L3-K3-GI or L3-GI (control) determined using the ThT binding assay (means (±SEM), 3 assays). […]
7 days aged solutions from (A) were added to PC12 cells; cell damage was assessed by the MTT reduction assay (means (±SEM), 3 assays (n=3 each)). […]

[12] = 20 μM 15N-labeled Aβ40, molar ratio 1:1

For `CSc1ccc(/C=C2/C(C)=C(CC(=O)O)c3cc(F)ccc32)cc1` [sulindac sulfide], the “Effect on Aβ peptide aggregation” value [1] is given as “accelerates Aβ peptide aggregation”.
For GVAEPEQDCAVTSGE, the “STD NMR signals” value [2] was “monomeric” and the “STD NMR signals” value ([2]; listed as monomeric peptide used as a control) was “no STD signals”.
In the case of `NCCCS(=O)(=O)O` [tramisprosate], the “Effect on Aβ42 amyloid oligomer formation” value [3] is listed as “can prevent amyloid oligomer formation”.
With “ATQRLANFLVH-GGG-NF(N-Me)GA(N-Me)ILS [G3-GI]” the “Aβ40 solubility at 1:1, in words” value [4, 12] was “almost unaffected”, the “Aβ40 resonance intensity remaining at tenfold excess of ISM” value ([4]; 20 μM 15N-labeled Aβ40, molar ratio Aβ/ISM 1:10) was “ca. 28%” and the “Aβ40 signal at tenfold excess of ISM, in words” value [4] was “high intensities were observed”. For the same molecule, the “Effect on Aβ40 solubility upon titration, in words” value [4] was “no effects on Aβ40 solubility were observed”, the “Aβ amyloid self-assembly inhibition, in words” value [5] was “non‐inhibitor” and the “Macroscopic particles in solution (DIC)” value [6] was “macroscopic particles are observed”. The “Co-localization with Aβ40” value [7] was “no co‐localization with Aβ40” and the “Long-range NOE contacts (loop formation)” value [8] was “only weak long‐range NOEs if any”.
In the case of “KKK-ATQRLANFLVH-LLL-NF(N-Me)GA(N-Me)ILS-KKK [K3-L3-K3-GI]”, the “Aβ40 remaining in solution” value [4, 12] is reported as 9%, the “Aβ40 chemical shift changes upon ISM addition” value ([4]; 2D 1H-15N HSQC, molar ratio 1:1) is reported as “not affected; also recorded: No Aβ40 chemical shift changes were observed” and the “Aβ40 signal at tenfold excess of ISM, in words” value [4] is reported as “almost empty; also recorded: disappear quantitatively”. For the same molecule, the “Effect on Aβ40 solubility upon titration, in words” value [4] was “precipitated quickly out of solution”, the “Morphology of ISM-induced Aβ40 aggregates” value [9] was “mainly amorphous aggregates” and the “Solubility, in words” value [10] was “reasonably soluble”. For the same molecule, the “Co-localization with Aβ40” value [7] was “co‐localize with Aβ40” and the “Function of K3-L3-K3-GI as analogue of L3-GI (Figure S1)” value [11] was “functional analogue”.
